Several values for one entry are separate records, joined by “and”; a condition that tells them apart may be missing. Equal values may be shown once. Inconclusive results and toxic doses are left out.
Tested on: L1210 leukemia ip in BDF1 mice, survival T/C
Assay: NCI In Vivo Anticancer Drug Screen. Data for tumor model L1210 Leukemia (intraperitoneal) in B6D2F1 (BDF1) mice
Details: endpoint: mean survival time, higher = longer survival
Method in brief: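 Antitumor effect is assessed in tumor-bearing animals. Survival in the compound arm is compared with a vehicle-dosed control arm and expressed as their quotient.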

[1] = dose: 100.0 mg/kg/injection, schedule: Q04DX003 (ip), vehicle: Klucel (hydroxypropylcellulose) (HPC)
[2] = dose: 200.0 mg/kg/injection, schedule: Q04DX003 (ip), vehicle: Klucel (hydroxypropylcellulose) (HPC)
[3] = dose: 400.0 mg/kg/injection, schedule: Q04DX003 (ip), vehicle: Klucel (hydroxypropylcellulose) (HPC)
[4] = dose: 100.0 mg/kg/injection, schedule: Q01DX009 (ip), vehicle: Klucel (hydroxypropylcellulose) (HPC)
[5] = dose: 200.0 mg/kg/injection, schedule: Q01DX009 (ip), vehicle: Klucel (hydroxypropylcellulose) (HPC)
[6] = dose: 25.0 mg/kg/injection, schedule: Q01DX009 (ip), vehicle: Klucel (hydroxypropylcellulose) (HPC)
[7] = dose: 50.0 mg/kg/injection, schedule: Q01DX009 (ip), vehicle: Klucel (hydroxypropylcellulose) (HPC)
[8] = dose: 100.0 mg/kg/injection, schedule: Q01DX001 (ip), vehicle: saline
[9] = dose: 200.0 mg/kg/injection, schedule: Q01DX001 (ip), vehicle: saline
[10] = dose: 100.0 mg/kg/injection, schedule: Q04DX003 (ip), vehicle: saline with Tween-80
[11] = dose: 200.0 mg/kg/injection, schedule: Q04DX003 (ip), vehicle: saline with Tween-80
[12] = dose: 100.0 mg/kg/injection, schedule: Q01DX001 (ip), vehicle: carboxymethylcellulose (CMC)
[13] = dose: 200.0 mg/kg/injection, schedule: Q01DX001 (ip), vehicle: carboxymethylcellulose (CMC)
[14] = dose: 400.0 mg/kg/injection, schedule: Q01DX001 (ip), vehicle: carboxymethylcellulose (CMC)

For `CCCCC(CCCC)(C(=O)OCC)C(=O)OCC`, the T/C (dose: 100.0 mg/kg/injection, schedule: Q04DX002 (ip), vehicle: saline with Tween-80) was 94 % of control, the T/C [1] was 96 % of control and the T/C (dose: 200.0 mg/kg/injection, schedule: Q04DX002 (ip), vehicle: saline with Tween-80) was 94 % of control. The T/C [2] was 105 % of control, the T/C (dose: 400.0 mg/kg/injection, schedule: Q04DX002 (ip), vehicle: saline with Tween-80) was 94 % of control and the T/C [3] was 91 % of control.

For `CCC(=O)c1ccc(NC(N)=S)cc1`, the T/C (dose: 20.0 mg/kg/injection, schedule: Q01DX005 (ip), vehicle: saline with Tween-80) was 94 % of control, the T/C (dose: 40.0 mg/kg/injection, schedule: Q01DX005 (ip), vehicle: saline with Tween-80) was 95 % of control and the T/C (dose: 80.0 mg/kg/injection, schedule: Q01DX005 (ip), vehicle: saline with Tween-80) was 94 % of control. For the same compound, the T/C (dose: 160.0 mg/kg/injection, schedule: Q01DX005 (ip), vehicle: saline with Tween-80) was 101 % of control.

`O=C(Nc1ccccc1F)C(Br)C(Br)c1ccccc1` (stereo not drawn) was tested, and the T/C [4] was 92 % of control, the T/C [5] was 100 % of control and the T/C (dose: 400.0 mg/kg/injection, schedule: Q01DX009 (ip), vehicle: Klucel (hydroxypropylcellulose) (HPC)) was 96 % of control.

In the case of `COc1cc(N(CCCl)CCCl)ccc1/C=N\NC(=O)c1cccnc1`, the T/C [6] is reported as 87 % of control, the T/C (dose: 50.0 mg/kg/injection, schedule: Q01DX001 (ip), vehicle: saline) is reported as 105 % of control and the T/C [7] is reported as 88 % of control. The T/C [8] was 105 % of control, the T/C [4] was 90 % of control and the T/C [9] was 100 % of control. For the same compound, the T/C [5] was 96 % of control and the T/C (dose: 400.0 mg/kg/injection, schedule: Q01DX001 (ip), vehicle: saline) was 97 % of control.

For `NC(CCSSCCC(N)C(=O)O)C(=O)O` (stereo not drawn), the T/C (dose: 12.5 mg/kg/injection, schedule: Q04DX002 (ip), vehicle: Klucel (hydroxypropylcellulose) (HPC)) was 113 % of control, the T/C (dose: 25.0 mg/kg/injection, schedule: Q04DX002 (ip), vehicle: Klucel (hydroxypropylcellulose) (HPC)) was 97 % of control and the T/C (dose: 50.0 mg/kg/injection, schedule: Q04DX002 (ip), vehicle: Klucel (hydroxypropylcellulose) (HPC)) was 103 % of control. The T/C [1] was 93 % of control, the T/C [2] was 101 % of control and the T/C [3] was 93 % of control.

For `Sc1ccccc1Cl`, the T/C (dose: 12.5 mg/kg/injection, schedule: Q01DX009 (ip), vehicle: Klucel (hydroxypropylcellulose) (HPC)) was 97 % of control, the T/C [6] was 95 % of control and the T/C (dose: 25.0 mg/kg/injection, schedule: Q04DX003 (ip), vehicle: Klucel (hydroxypropylcellulose) (HPC)) was 103 % of control. For the same compound, the T/C [7] was 97 % of control, the T/C (dose: 50.0 mg/kg/injection, schedule: Q04DX003 (ip), vehicle: Klucel (hydroxypropylcellulose) (HPC)) was 103 % of control and the T/C [1] was 102 % of control.

`O=C(Nc1ccc(C2=NCCN2)cc1)c1cc(C(=O)Nc2ccc(C3=NCCN3)cc2)ncn1` was tested, and the T/C (dose: 0.47 mg/kg/injection, schedule: Q01DX015 (ip), vehicle: methylcellulose (MC)) was 96 % of control, the T/C (dose: 0.93 mg/kg/injection, schedule: Q01DX015 (ip), vehicle: methylcellulose (MC)) was 108 % of control and the T/C (dose: 0.93 mg/kg/injection, schedule: Q01DX Z (ip), vehicle: carboxymethylcellulose (CMC)) was 94 % of control. The T/C (dose: 1.87 mg/kg/injection, schedule: Q01DX015 (ip), vehicle: methylcellulose (MC)) was 100 % of control and 101 % of control, the T/C (dose: 1.87 mg/kg/injection, schedule: Q01DX Z (ip), vehicle: carboxymethylcellulose (CMC)) was 120 % of control and the T/C (dose: 3.75 mg/kg/injection, schedule: Q01DX015 (ip), vehicle: methylcellulose (MC)) was 102 % of control and 116 % of control. The T/C (dose: 6.25 mg/kg/injection, schedule: Q01DX001 (ip), vehicle: methylcellulose (MC)) was 112 % of control, the T/C (dose: 7.5 mg/kg/injection, schedule: Q01DX015 (ip), vehicle: methylcellulose (MC)) was 116 % of control and 118 % of control and the T/C (dose: 12.5 mg/kg/injection, schedule: Q01DX001 (ip), vehicle: methylcellulose (MC)) was 108 % of control. For the same compound, the T/C (dose: 15.0 mg/kg/injection, schedule: Q01DX015 (ip), vehicle: other) was 153 % of control, the T/C (dose: 15.0 mg/kg/injection, schedule: Q01DX Z (ip), vehicle: carboxymethylcellulose (CMC)) was 303 % of control and the T/C (dose: 25.0 mg/kg/injection, schedule: Q01DX001 (ip), vehicle: methylcellulose (MC)) was 104 % of control. The T/C (dose: 30.0 mg/kg/injection, schedule: Q01DX015 (ip), vehicle: methylcellulose (MC)) was 93 % of control, the T/C (dose: 30.0 mg/kg/injection, schedule: Q01DX015 (ip), vehicle: other) was 241 % of control and the T/C (dose: 30.0 mg/kg/injection, schedule: Q01DX Z (ip), vehicle: carboxymethylcellulose (CMC)) was 224 % of control. The T/C (dose: 36.0 mg/kg/injection, schedule: Q01DX001 (ip), vehicle: carboxymethylcellulose (CMC)) was 118 % of control, the T/C (dose: 36.0 mg/kg/injection, schedule: Q01DX001 (ip), vehicle: other) was 112 % of control and the T/C (dose: 50.0 mg/kg/injection, schedule: Q01DX001 (ip), vehicle: methylcellulose (MC)) was 122 % of control. For the same compound, the T/C (dose: 53.0 mg/kg/injection, schedule: Q01DX001 (ip), vehicle: carboxymethylcellulose (CMC)) was 118 % of control, the T/C (dose: 53.0 mg/kg/injection, schedule: Q01DX001 (ip), vehicle: other) was 121 % of control and the T/C (dose: 60.0 mg/kg/injection, schedule: Q01DX015 (ip), vehicle: other) was 102 % of control. For the same compound, the T/C (dose: 60.0 mg/kg/injection, schedule: Q01DX Z (ip), vehicle: carboxymethylcellulose (CMC)) was 154 % of control, the T/C (dose: 79.0 mg/kg/injection, schedule: Q01DX001 (ip), vehicle: carboxymethylcellulose (CMC)) was 124 % of control and the T/C (dose: 120.0 mg/kg/injection, schedule: Q01DX Z (ip), vehicle: carboxymethylcellulose (CMC)) was 121 % of control. For the same compound, the T/C (dose: 180.0 mg/kg/injection, schedule: Q01DX001 (ip), vehicle: carboxymethylcellulose (CMC)) was 157 % of control, the T/C (dose: 180.0 mg/kg/injection, schedule: Q01DX001 (ip), vehicle: other) was 162 % of control and the T/C (dose: 270.0 mg/kg/injection, schedule: Q01DX001 (ip), vehicle: carboxymethylcellulose (CMC)) was 169 % of control. For the same compound, the T/C (dose: 405.0 mg/kg/injection, schedule: Q01DX001 (ip), vehicle: carboxymethylcellulose (CMC)) was 193 % of control.

For `CCCCC[As](=O)(O)O`, the T/C (dose: 1.5 mg/kg/injection, schedule: Q01DX001 (ip), vehicle: carboxymethylcellulose (CMC)) was 104 % of control, the T/C (dose: 3.0 mg/kg/injection, schedule: Q01DX001 (ip), vehicle: carboxymethylcellulose (CMC)) was 102 % of control and the T/C (dose: 6.0 mg/kg/injection, schedule: Q01DX001 (ip), vehicle: carboxymethylcellulose (CMC)) was 113 % of control.

For `CC(C)(CO)NCC(C)(C)[N+](=O)[O-]`, the T/C [1] was 103 % of control, the T/C [2] was 102 % of control and the T/C [3] was 112 % of control.

For `CCOC(=O)C1=CCC(n2cc(F)c(=O)[nH]c2=O)O1` (stereo not drawn), the T/C [10] was 98 % of control, the T/C [11] was 102 % of control and the T/C (dose: 400.0 mg/kg/injection, schedule: Q04DX003 (ip), vehicle: saline with Tween-80) was 98 % of control.

`NC1=CC(=O)c2ccccc2C1=O` was tested, and the T/C (dose: 15.6 mg/kg/injection, schedule: Q01DX Z (ip), vehicle: other) was 112 % of control, the T/C (dose: 62.5 mg/kg/injection, schedule: Q01DX Z (ip), vehicle: other) was 106 % of control and the T/C [10] was 103 % of control. For the same compound, the T/C [11] was 98 % of control.

In the case of `CCC(CC)(Cc1ccccc1)C(=O)NC(=O)NO`, the T/C (dose: 25.0 mg/kg/injection, schedule: Q01DX Z (ip), vehicle: methylcellulose (MC)) is reported as 98 % of control, the T/C (dose: 50.0 mg/kg/injection, schedule: Q01DX Z (ip), vehicle: methylcellulose (MC)) is reported as 101 % of control and the T/C (dose: 100.0 mg/kg/injection, schedule: Q01DX Z (ip), vehicle: methylcellulose (MC)) is reported as 98 % of control.

`COC(=O)/C(=C\c1ccccc1)CNC(C)(C)C` was tested, and the T/C [8] was 100 % of control and the T/C [9] was 97 % of control.

`OC(CF)CF` was tested, and the T/C (dose: 25.0 mg/kg/injection, schedule: Q01DX009 (ip), vehicle: saline) was 115 % of control and the T/C (dose: 100.0 mg/kg/injection, schedule: Q01DX009 (ip), vehicle: saline) was 103 % of control.

`O=c1[nH]nc(S(=O)(=O)N2CCCC2)c(=O)[nH]1` was tested, and the T/C [12] was 98 % of control, the T/C [13] was 98 % of control and the T/C [14] was 93 % of control.

In the case of `CC12CC(O)C3c4ccc(O)cc4CCC3C1CCC2=O` (stereo not drawn), the T/C (dose: 50.0 mg/kg/injection, schedule: Q01DX001 (ip), vehicle: carboxymethylcellulose (CMC)) is reported as 106 % of control, the T/C [12] is reported as 98 % of control and the T/C [13] is reported as 104 % of control. The T/C [14] was 104 % of control.
